# Assay results reported in patent US10016430B2, “1-[2-(aminomethyl)benzyl]-2-thioxo-1,2,3,5-tetrahydro-4H-pyrrolo[3,2-d]pyrimidin-4-ones as inhibitors of myeloperoxidase” (AstraZeneca AB, priority 2014, dated 2018).
# Molecular target: activated MPO (Homo sapiens (Human), UniProt P05164)
# Test: Urate production by activated MPO incubated with xanthine, LC-MS
# Assay type: biochemical
# Details: activated MPO incubated with xanthine and titrated compound for 80 min, FIG. 3
# Source text: The dotted line represents the urate formed in the presence of unactivated MPO.
# We postulate that tissue hypoxia, the degree of which will be determined by the degree of inflammation and vascular function, has impact on plasma urate concentration. Myocardial ischemia results in accelerated loss of ATP and a corresponding buildup of urate levels in rat hearts (Am. J. Physiol. Heart Circ. Physiol., 2004, 286, H677-H684; J. Biol. Chem., 1995, 270, 18797-18803). Furthermore, increased myocardial production of urate contributes to systemic urate levels and correlates to NYHA class in heart failure patients (Circ. J., 2006, 70, 1006-1011).
# Chain of activated MPO (P05164 49-745): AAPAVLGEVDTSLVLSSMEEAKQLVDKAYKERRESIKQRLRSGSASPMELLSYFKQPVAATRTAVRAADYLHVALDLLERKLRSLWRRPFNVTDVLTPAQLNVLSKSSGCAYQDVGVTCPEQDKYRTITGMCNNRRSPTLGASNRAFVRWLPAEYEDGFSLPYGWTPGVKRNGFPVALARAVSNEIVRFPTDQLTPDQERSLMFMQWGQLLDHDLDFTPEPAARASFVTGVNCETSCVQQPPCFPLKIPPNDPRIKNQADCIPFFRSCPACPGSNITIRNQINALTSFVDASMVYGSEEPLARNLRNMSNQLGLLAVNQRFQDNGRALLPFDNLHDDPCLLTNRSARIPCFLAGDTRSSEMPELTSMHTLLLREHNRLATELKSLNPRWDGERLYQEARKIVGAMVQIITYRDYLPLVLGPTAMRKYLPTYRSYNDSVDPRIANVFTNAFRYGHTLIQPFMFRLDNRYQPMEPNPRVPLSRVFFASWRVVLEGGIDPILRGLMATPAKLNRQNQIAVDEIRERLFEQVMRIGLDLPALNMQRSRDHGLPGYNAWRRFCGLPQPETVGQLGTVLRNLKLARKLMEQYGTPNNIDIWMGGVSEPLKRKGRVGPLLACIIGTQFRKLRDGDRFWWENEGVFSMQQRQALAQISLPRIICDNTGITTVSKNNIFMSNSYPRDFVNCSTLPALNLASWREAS
structure (smiles),measurement,value
"C[C@@H](N)c1cc(Cl)ccc1Cn1c(=S)[nH]c(=O)c2[nH]ccc21 [Example 3, 1-{2-[(1R)-1-Aminoethyl]-4-chlorobenzyl}-2-thioxo-1,2,3,5-tetrahydro-4H-pyrrolo[3,2-d]pyrimidin-4-one]",Inhibition of urate production by activated MPO,concentration-dependently inhibited
